Data as given in PMC11601558, “SLC6A19 inhibition facilitates urinary neutral amino acid excretion and lowers plasma phenylalanine” (JCI Insight, 2024).
Values joined by “and” are separate entries in the source; they are usually repeats but may differ in a detail not shown here. Identical values can stand only once. Like-named read-outs stand apart in the source and are kept apart here.

Target: T1, mouse SLC6A19 (Mus musculus, UniProt Q9D687)
T1 construct: expressed in transfected cells
T1 sequence (Q9D687 1-634): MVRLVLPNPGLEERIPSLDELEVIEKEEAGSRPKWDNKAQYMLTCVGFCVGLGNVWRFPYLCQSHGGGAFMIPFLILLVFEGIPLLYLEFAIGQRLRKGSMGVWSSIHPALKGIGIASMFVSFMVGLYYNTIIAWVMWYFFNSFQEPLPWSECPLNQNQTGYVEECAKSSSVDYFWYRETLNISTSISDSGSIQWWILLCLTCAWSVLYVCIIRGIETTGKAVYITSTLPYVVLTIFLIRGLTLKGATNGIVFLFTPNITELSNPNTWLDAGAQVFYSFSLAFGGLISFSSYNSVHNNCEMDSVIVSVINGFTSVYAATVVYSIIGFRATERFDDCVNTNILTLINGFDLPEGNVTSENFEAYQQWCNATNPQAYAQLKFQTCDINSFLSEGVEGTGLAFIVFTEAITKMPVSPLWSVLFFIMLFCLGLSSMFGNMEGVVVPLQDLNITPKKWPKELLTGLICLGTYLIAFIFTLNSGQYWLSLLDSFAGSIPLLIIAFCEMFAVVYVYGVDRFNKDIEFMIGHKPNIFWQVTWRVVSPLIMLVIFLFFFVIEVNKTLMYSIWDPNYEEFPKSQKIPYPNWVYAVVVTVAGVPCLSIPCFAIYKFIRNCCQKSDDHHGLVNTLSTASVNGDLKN
T1 sequence (Q9ESG4 15-222 partner): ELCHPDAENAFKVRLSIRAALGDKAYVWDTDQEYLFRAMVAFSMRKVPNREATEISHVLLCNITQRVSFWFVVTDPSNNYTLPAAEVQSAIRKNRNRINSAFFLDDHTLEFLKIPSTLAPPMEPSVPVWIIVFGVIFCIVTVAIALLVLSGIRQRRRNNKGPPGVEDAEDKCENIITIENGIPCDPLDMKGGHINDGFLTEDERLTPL
Assay: Isoleucine transport assay, Flp-In T-REx 293 cells coexpressing mouse SLC6A19 and TMEM27
Assay type: cell-based
Conditions: for isoleucine transport, Mouse (Fig 1f curve point) / isoleucine transport, Mouse (Fig 1c curve point): technical replicates; for IC50: read-out: IC50 against mouse SLC6A19, isoleucine transport assay
Experimental: Flp-In T-REx 293 cells (Thermo Fisher Scientific) were engineered to coexpress C-terminally V5-tagged human or mouse SLC6A19 under the control of a tetracycline-inducible promoter and human or mouse myc-DDK-tagged TMEM27 under the control of a constitutively active promoter. Cells were maintained in DMEM/F12 medium supplemented with 10% FBS, 100 units/mL penicillin, 100 μg/mL streptomycin, 200 μg/mL hygromycin, 10 μg/mL blasticidin, and 300 μg/mL geneticin (all from Thermo Fisher Scientific) at 37°C and 5% CO2.
Flp-In T-REx 293 cells stably coexpressing human or mouse SLC6A19 and TMEM27 were plated in 384-well plates in the presence of 1 μg/mL tetracyclin (Sigma-Aldrich) to induce the expression of SLC6A19. After 24 hours, cells were washed with live cell imaging solution (LCIS, Thermo Fisher Scientific) before JN-170 or JNT-517 were added to cells in 10-point concentration response curves in 0.5% DMSO in Krebs buffer (140 mM NaCl, 4.7 mM KCl, 2.5 mM CaCl2, 1.2 mM MgCl2, 11 mM HEPES, 10 mM glucose, pH 7.4). Cells were incubated with compounds for 1 hour at room temperature before 1 mM ^13C6,^15N1-labeled L-isoleucine (Cambridge Isotope Laboratories) was added as a transport substrate. After 20 minutes incubation at room temperature, cells were washed and lysed in H2O with 15 μM internal standard D-Leucine-D10 (CDN Isotopes) for 1–2 hours. A standard curve of ^13C6,^15N1-L-isoleucine was added to each plate following cell lysis. Plates were centrifuged at 3,700g to remove cell debris, and supernatant was diluted in 2 steps to a final 1:10 dilution in acetonitrile/0.1% formic acid. Sample desalting was performed on a high throughput RapidFire-365 (Agilent) using a hydrophilic interaction liquid chromatography (HILIC) column. A quantitative time-of-flight (Q-ToF) mass spectrometer (Agilent) was used to detect analytes. Agilent MassHunter quantitative analysis for time of flight was used as the integration software for measuring area under the peak for both ^13C6,^15N1-L-isoleucine and D-Leucine-D10 internal standard.
IC50 values for transport inhibition in cells overexpressing SLC6A19 and TMEM27 were calculated using a 4-parameter logistic regression in Collaborative Drug Discovery (CDD). Reported IC50 values are geometric means of 4–6 independent experiments. For postmortem intestinal transport assays, single outliers of quadruplicate replicates were excluded from the calculation if a signal value’s distance to the mean exceeded 35% of the signal average. The IC50 values of individual experiments were calculated with a 3- or 4-parameter logistic regression using GraphPad Prism 9. The reported IC50 value represents the geometric mean of n = 5 experiments from 3 individual donors. Statistical comparison of urinary Phe excretion in Pah^enu2 mice treated with vehicle or JN-170 was conducted using 1-way analysis of variance (ANOVA) with Tukey’s post hoc comparison. Statistical analysis of baseline-adjusted plasma Phe in mice treated with vehicle or JN-170 was determined by 2-way ANOVA with Dunnett’s post hoc comparison. All statistical analyses were performed using GraphPad Prism 9. For clinical studies, group sizes were not determined based on statistical power calculations. Statistical significance of pharmacodynamic results was not assessed. Values are reported as mean (urinary Phe excretion, T1/2, Cl/F), geometric mean (Cmax/D, AUC0-inf/D), or median (Tmax).

N#Cc1ccc(-c2noc([C@]3(C(F)(F)F)CCN(C(=O)NCCC4(N)CC4)C3)n2)cc1 [JN-170]
isoleucine transport, Mouse (Fig 1f curve point) (0.000722 uM): 84.1 and 94.9
isoleucine transport, Mouse (Fig 1f curve point) (0.00219 uM): 91.4 and 88.7
isoleucine transport, Mouse (Fig 1f curve point) (0.00438 uM): 84.6 and 91.9
isoleucine transport, Mouse (Fig 1f curve point) (0.015313 uM): 82.4 and 86.6
isoleucine transport, Mouse (Fig 1f curve point) (0.048125 uM): 65.9 and 67.7
isoleucine transport, Mouse (Fig 1f curve point) (0.144375 uM): 32.3 and 28.6
isoleucine transport, Mouse (Fig 1f curve point) (0.4375 uM): 14.6 and 12.2
isoleucine transport, Mouse (Fig 1f curve point) (1.3125 uM): -0.346 and -1.17
isoleucine transport, Mouse (Fig 1f curve point) (3.9375 uM): -4.28 and -6.91
isoleucine transport, Mouse (Fig 1f curve point) (11.8125 uM): -7.48 and -5.64
IC50 (geometric mean n = 6): 97 nM

NC(=O)N1CCC[C@@H](N(C(=O)NCc2ccc(OC(F)(F)F)cc2F)C2CC2)C1 [JNT-517]
isoleucine transport, Mouse (Fig 1c curve point) (0.000722 uM): 87.6 and 103
isoleucine transport, Mouse (Fig 1c curve point) (0.00219 uM): 108 and 105
isoleucine transport, Mouse (Fig 1c curve point) (0.00438 uM): 100 and 89.5
isoleucine transport, Mouse (Fig 1c curve point) (0.0153125 uM): 85.6 and 104
isoleucine transport, Mouse (Fig 1c curve point) (0.048125 uM): 88.3 and 96.6
isoleucine transport, Mouse (Fig 1c curve point) (0.144375 uM): 78.2 and 95.8
isoleucine transport, Mouse (Fig 1c curve point) (0.4375 uM): 86.6 and 108
isoleucine transport, Mouse (Fig 1c curve point) (1.3125 uM): 93.2 and 97.6
isoleucine transport, Mouse (Fig 1c curve point) (3.9375 uM): 89 and 86.1
isoleucine transport, Mouse (Fig 1c curve point) (11.8125 uM): 86 and 88.2
IC50: > 11800 nM
